Source: the supplement of paper PMC10307832

What was measured:
Assay in all cases: relative viability (nuclei count vs DMSO), 5 days (fraction); higher = more cells survive
Afatinib + Palbociclib = compound: CN(C)C/C=C/C(=O)Nc1cc2c(Nc3ccc(F)c(Cl)c3)ncnc2cc1O[C@H]1CCOC1 [Afatinib] + CC(=O)c1c(C)c2cnc(Nc3ccc(N4CCNCC4)cn3)nc2n(C2CCCC2)c1=O [Palbociclib] (partner 0.5 µM)
Method in brief: (§1)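 Lung cancer cell lines in 1536-well plates got either a single drug or a fixed anchor-drug dose together with five library-drug doses (not always all listed) in √10 steps, by pin tool, on the day after seeding. Nuclei were counted after 5 days, and relative viability is the treated-to-vehicle ratio of nuclei counts. Values are medians of duplicate plates.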

Afatinib + OSI-027 = compound: CN(C)C/C=C/C(=O)Nc1cc2c(Nc3ccc(F)c(Cl)c3)ncnc2cc1O[C@H]1CCOC1 [Afatinib] + COc1cccc2cc(-c3nc([C@H]4CC[C@H](C(=O)O)CC4)n4ncnc(N)c34)[nH]c12 [OSI-027] (partner 0.5 µM)
Method in brief: as §1

Afatinib + Foretinib = compound: CN(C)C/C=C/C(=O)Nc1cc2c(Nc3ccc(F)c(Cl)c3)ncnc2cc1O[C@H]1CCOC1 [Afatinib] + COc1cc2c(Oc3ccc(NC(=O)C4(C(=O)Nc5ccc(F)cc5)CC4)cc3F)ccnc2cc1OCCCN1CCOCC1 [Foretinib] (partner 0.25 µM)
Method in brief: as §1

Afatinib = compound: CN(C)C/C=C/C(=O)Nc1cc2c(Nc3ccc(F)c(Cl)c3)ncnc2cc1O[C@H]1CCOC1 [Afatinib]
Method in brief: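 Hoechst staining, done together with fixation and permeabilisation, marked nuclei for 4× imaging and MetaXpress counting. This followed 5 days without medium change after lung cancer cell lines, kept overnight at 37 °C in 1536-well plates, were pinned with five library-drug doses (not always all listed) spaced by √10 on vehicle-anchored plates. Viability is the ratio of treated-well to vehicle-well nuclei, expressed as a median across plates. Plates passed only at control CV below 25% with at least one doubling.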

Row | Cell Line | relative viability (Afatinib + Palbociclib; first compound 0.005 µM) | relative viability (Afatinib + Palbociclib; first compound 0.01581 µM) | relative viability (Afatinib + Palbociclib; first compound 0.05 µM) | relative viability (Afatinib + Palbociclib; first compound 0.1581 µM) | relative viability (Afatinib + Palbociclib; first compound 0.5 µM) | relative viability (Afatinib + OSI-027; first compound 0.005 µM) | relative viability (Afatinib + OSI-027; first compound 0.01581 µM) | relative viability (Afatinib + OSI-027; first compound 0.05 µM) | relative viability (Afatinib + OSI-027; first compound 0.1581 µM) | relative viability (Afatinib + OSI-027; first compound 0.5 µM) | relative viability (Afatinib + Foretinib; first compound 0.005 µM) | relative viability (Afatinib + Foretinib; first compound 0.01581 µM) | relative viability (Afatinib + Foretinib; first compound 0.05 µM) | relative viability (Afatinib + Foretinib; first compound 0.1581 µM) | relative viability (Afatinib + Foretinib; first compound 0.5 µM) | relative viability (Afatinib; 0.005 µM) | relative viability (Afatinib; 0.01581 µM) | relative viability (Afatinib; 0.05 µM) | relative viability (Afatinib; 0.1581 µM) | relative viability (Afatinib; 0.5 µM)
1 | HCC-78 | 0.46 | 0.41 | 0.452 | 0.594 | 0.461 | 0.443 | 0.326 | 0.331 | 0.317 | 0.283 | 0.549 | 0.568 | 0.405 | 0.324 | 0.386 | 1.07 | 0.89 | 0.898 | 0.791 | 0.815
2 | HCC-366 | 0.469 | 0.361 | 0.443 | 0.37 | 0.456 | 0.947 | 0.965 | 0.969 | 0.824 | 0.788 | 0.916 | 0.949 | 0.868 | 0.937 | 0.914 | 1.03 | 1.04 | 1.03 | 0.985 | 0.989
3 | HCC-827 | 0.158 | 0.139 | 0.164 | 0.171 | 0.136 | 0.159 | 0.122 | 0.153 | 0.153 | 0.141 | 0.135 | 0.166 | 0.162 | 0.147 | 0.163 | 0.172 | 0.169 | 0.212 | 0.175 | 0.162
4 | HOP-62 | 0.415 | 0.431 | 0.523 | 0.48 | 0.445 | 0.947 | 0.835 | 0.826 | 0.933 | 0.827 | 1.18 | 1.23 | 1.18 | 1.14 | 1.1 | 1.12 | 0.989 | 1.05 | 1.03 | 1.08
5 | IA-LM | – | – | – | – | – | – | – | – | – | – | 1.47 | 1.13 | 1.2 | 1.03 | 1.07 | 0.925 | 0.868 | 0.905 | 0.883 | 0.871
6 | LC-2-ad | 0.494 | 0.489 | 0.483 | 0.447 | 0.477 | 0.871 | 0.67 | 0.823 | 0.575 | 0.622 | 0.815 | 0.718 | 0.565 | 0.565 | 0.6 | 1.06 | 0.957 | 1.04 | 0.956 | 1.05
7 | LCLC-97TM1 | 0.222 | 0.232 | 0.23 | 0.239 | 0.201 | 0.561 | 0.502 | 0.629 | 0.43 | 0.457 | 1 | 0.906 | 0.894 | 0.808 | 0.907 | 1.1 | 0.878 | 1.01 | 0.993 | 0.943
8 | LCLC-103H | 0.452 | 0.495 | 0.443 | 0.436 | 0.485 | 0.48 | 0.46 | 0.54 | 0.482 | 0.479 | 0.832 | 0.814 | 0.734 | 0.834 | 0.846 | 0.962 | 0.945 | 0.974 | 0.945 | 1.03
9 | LK-2 | 0.621 | 0.633 | 0.656 | 0.673 | 0.584 | 0.213 | 0.188 | 0.194 | 0.156 | 0.216 | 0.994 | 1.13 | 0.851 | 1.06 | 0.997 | 1.25 | 0.91 | 0.926 | 0.977 | 0.956
10 | LOU-NH91 | 0.533 | 0.535 | 0.538 | 0.564 | 0.538 | 0.491 | 0.404 | 0.477 | 0.4 | 0.518 | 0.541 | 0.524 | 0.592 | 0.497 | 0.568 | 0.784 | 0.813 | 0.887 | 0.73 | 0.791
11 | LU99A | 0.451 | 0.39 | 0.425 | 0.36 | 0.391 | 0.294 | 0.297 | 0.295 | 0.287 | 0.292 | 0.957 | 0.818 | 0.831 | 0.77 | 0.785 | 1.15 | 0.984 | 0.94 | 0.924 | 0.975
12 | LXF-289 | 0.604 | 0.561 | 0.553 | 0.486 | 0.533 | 0.82 | 0.606 | 0.62 | 0.602 | 0.67 | 0.983 | 0.977 | 0.905 | 0.91 | 0.884 | 1.01 | 0.97 | 0.947 | 0.94 | 0.94
13 | NCI-H596 | – | – | – | – | – | 0.728 | 0.701 | 0.746 | 0.613 | 0.651 | 0.811 | 0.952 | 0.675 | 0.643 | 0.873 | 1.09 | 0.913 | 0.933 | 0.936 | 0.928
14 | NCI-H1299 | – | – | – | – | – | – | – | – | – | – | 1.14 | 1.06 | 1.15 | 1.12 | 1.17 | 0.992 | 0.992 | 1.06 | 1.01 | 0.98
15 | NCI-H1563 | – | – | – | – | – | 0.729 | 0.739 | 0.737 | 0.709 | 0.746 | 0.891 | 0.967 | 0.933 | 0.836 | 0.87 | 0.992 | 0.932 | 0.97 | 0.895 | 0.99
16 | NCI-H1648 | 0.248 | 0.304 | 0.269 | 0.344 | 0.263 | 0.253 | 0.266 | 0.298 | 0.219 | 0.27 | – | – | – | – | – | 0.881 | 0.765 | 0.437 | 0.478 | 0.457
17 | NCI-H1703 | – | – | – | – | – | – | – | – | – | – | 0.319 | – | 0.347 | 0.361 | 0.329 | 1.25 | 0.749 | 1.03 | 0.853 | 0.713
18 | NCI-H1792 | 0.73 | 0.661 | 0.63 | 0.599 | 0.651 | 0.662 | 0.762 | 0.707 | 0.672 | 0.735 | – | – | – | – | – | 1.09 | 0.786 | 0.853 | 0.988 | 0.661
